Consider two molecules from article PMC7403315, “Cyclic peptide FXII inhibitor provides safe anticoagulation in a thrombosis model and in artificial lungs” (Nature Communications, 2020).

For series [1] the following is noted: human; cited from earlier work.
Series [2] addresses T1, trypsin (Homo sapiens, UniProt P07477).
T1 construct: purchased Molecular Innovations
The series can be described thus: Specificity profiling, residual protease activity. It is filed as biochemical. As to the method: (§1) Protease inhibition assays
(§2) The inhibitory activity of peptides was determined by measuring the residual protease activity with a fluorogenic substrate. The assay was performed in buffer containing 10 mM Tris-Cl, pH […]
(§3) 1% (v/v) DMSO in a volume of 150 µl. […]
(§4) HFXIIAB) were used at final concentrations of 0.4 nM. The reaction was pipetted as follows: 50 µl of bicyclic peptide in assay buffer were added to 50 µl of FXIIa in assay buffer and incubated for 10 minutes at 25°C before 50 µl of 150 µM fluorogenic substrate in assay buffer were added to measure the residual protease activity with an Infinite M200Pro fluorescence plate reader (excitation at 368 nm, emission at 467 nm; Tecan) for a period of 30 minutes with a read every minute at 25°C. The Tecan software i-control (version 1.1) was used for data analysis. Stock solutions of 1 mM bicyclic peptide were prepared by either dissolving the unpurified cyclization reaction with water or by dissolving purified and lyophilized peptide in water. The bicyclic peptides were serially diluted two-fold using assay buffer. Sigmoidal curves were fitted to the data using the following dose response equation (1), wherein x = peptide concentration, y = % protease activity, and p = Hill slope. IC50 values were derived from the fitted curve.
(§5) The inhibition constants (Ki) were calculated according to the equation of Cheng and Prusoff, Ki = IC50/(1+([S]0/Km), wherein IC50 is the functional strength of the inhibitor, [S]0 is the total substrate concentration, and Km is the Michaelis-Menten constant. […]
(§6) For testing the specificity of the bicyclic peptides, the following final concentrations of human serine proteases were used: tPA (Molecular Innovations) 7.5 nM, uPA (Molecular Innovations) 1.5 nM, factor XIa (Innovative Research) 6 nM, plasma kallikrein (Innovative Research) 0.25 nM, thrombin (Molecular Innovations) 1 nM, plasmin (Molecular Innovations) 2.5 nM, trypsin (Molecular Innovations) 0.05 nM, factor VIIa (Haematologic Technologies) 50 nM, factor Xa […]
(§7) (Haematologic Technologies) 6 nM, and activated protein C (APC) 5 nM. Two-fold dilutions of the peptide were prepared that ranged from 0.04 to 40 µM. The following fluorogenic substrates were used at a final concentration of 50 µM: Z-Phe-Arg-AMC (Bachem) for plasma kallikrein; Boc-Phe-Ser-Arg-AMC (Bachem) for factor XIa; Z-Gly-Gly-Arg-AMC (Bachem) for tPA, uPA, thrombin, and trypsin; H-D-Val-Leu-Lys-AMC (Bachem) for plasmin; and D-Phe-Pro-Arg-ANSNH-C4H9 (Haematologic Technologies) for FVIIa and FXa. For APC, the chromogenic substrate pyroGlu-Pro-Arg-pNA (S2366) was used at a concentration of 400 µM. […]

Series [3] deals with T2, factor VIIa (Homo sapiens, UniProt P08709).
T2 construct: (Molecular Innovations) 0.05 nM, factor VIIa (Haematologic Technologies) 50 nM, factor Xa; purchased Haematologic Technologies
T2 sequence (P08709 213-466 limits assumed): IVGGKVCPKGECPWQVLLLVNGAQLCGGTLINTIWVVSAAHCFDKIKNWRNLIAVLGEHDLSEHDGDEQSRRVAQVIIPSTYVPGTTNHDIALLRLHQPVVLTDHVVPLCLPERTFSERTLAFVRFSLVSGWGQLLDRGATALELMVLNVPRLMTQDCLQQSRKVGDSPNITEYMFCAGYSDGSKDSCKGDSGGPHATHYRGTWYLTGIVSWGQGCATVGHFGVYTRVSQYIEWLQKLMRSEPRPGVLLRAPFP
T2 sequence (P08709 61-212 limits assumed): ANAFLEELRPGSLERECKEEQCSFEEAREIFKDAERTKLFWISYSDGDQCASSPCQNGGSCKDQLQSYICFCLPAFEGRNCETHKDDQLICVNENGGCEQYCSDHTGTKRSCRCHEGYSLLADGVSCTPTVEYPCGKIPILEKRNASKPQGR
The series can be described thus: Specificity profiling, residual protease activity. It is filed as biochemical. As to the method:
as §1, §2, §3, §4, §5, §6, §7

Series [4] in a line: Observation of toxicity or adverse effects in the animal studies. The format is in vivo, mice, rabbits, pigs. The following applies: all studies with the three species.
Where [5] appears, read: inhibitor 40000 nM (40 µM), 40 µM.

Several values for one entry are separate records, joined by “and”; a condition that tells them apart may be missing. Equal values may be shown once. Starred links: 1 amine or outer side, 2 acyl side, 3 side chain; linkers in the order of their positions; H or OH if unused. Positions of bridges follow the written chain, without caps; N, C: chain ends. Non-standard residues stand in square brackets, D forms with d. Residues, ends and D or L forms follow the SMILES beside them. TATA = O=C(CC[*:1])N1CN(C(=O)CC[*:2])CN(C(=O)CC[*:3])C1; Phe(4-F) = N[C@@H](Cc1ccc(F)cc1)C(=O)O; β3hR = N=C(N)NCCC[C@H](N)CC(=O)O

Turning to `CC(C)C[C@@H]1NC(=O)[C@H](CCC(N)=O)NC(=O)[C@H](CCCNC(=N)N)NC(=O)[C@@H]2CSCCC(=O)N3CN(CN(C3)C(=O)CCSC[C@H](NC(=O)[C@@H](N)CCCNC(=N)N)C(=O)N[C@@H](Cc3ccccc3)C(=O)N[C@@H](CCCNC(=N)N)C(=O)N[C@@H](CC(C)C)C(=O)N3CCC[C@H]3C(=O)N2)C(=O)CCSC[C@@H](C(=O)N[C@@H](CCCNC(=N)N)C(N)=O)NC(=O)[C@H](CCCNC(=N)N)NC1=O` [FXII618], in series [1], the “t1/2 of cleavage of N-terminal Arg1 by plasma proteases” value was “around 4 h”.
As usually defined, the Ki is the equilibrium dissociation constant of an inhibitor or competing ligand from its target. Take `CC(C)C[C@@H]1NC(=O)[C@H](CCC(N)=O)NC(=O)[C@H](Cc2c[nH]cn2)NC(=O)[C@@H]2CSCCC(=O)N3CN(CN(C3)C(=O)CCSC[C@H](NC(=O)[C@@H](CO)NC(=O)[C@H](N)CCCNC(=N)N)C(=O)N[C@@H](Cc3ccc(F)cc3)C(=O)N[C@@H](CCCNC(=N)N)C(=O)N[C@@H](CC(C)C)C(=O)N3CCC[C@H]3C(=O)N2)C(=O)CCSC[C@@H](C(N)=O)NC(=O)C[C@H](CCCNC(=N)N)NC1=O` [FXII900] (H-[dR][dS]C[Phe(4-F)]RLPCHQL[β3hR]C-NH2; linker 3-8-13 via TATA): the Ki in series [2] is 1.46 µM; in series [3] (read-out: Ki FVIIa), greater than 40 µM. In addition, the remaining activity at 0.0390625 µM in series [2] (inhibitor 39.0625 nM) turned out to be 99%. In addition, the “Residual activity of Trypsin” value in series [2] (inhibitor 39.0625 nM, 0.0390625 µM) was found to be 98.1138%; in series [2] (inhibitor 78.125 nM, 0.078125 µM), 99.9393%; in series [2] (inhibitor 156.25 nM, 0.15625 µM), 92.2203%; in series [2] (inhibitor 312.5 nM, 0.3125 µM) it was 88.4651%; in series [2] (inhibitor 625 nM, 0.625 µM) it was 73.7094%; in series [2] (inhibitor 1250 nM, 1.25 µM) it was 61.5181%. For the same molecule, the “Residual activity of Trypsin” value is 46.5602% in series [2] (inhibitor 2500 nM, […]); 30.2825% in series [2] (inhibitor 5000 nM, 5 µM); 19.2935% in series [2] (inhibitor 10000 nM, 10 µM); 12.2739% in series [2] (inhibitor 20000 nM, 20 µM); 9.912% and 8.397% in series [2] (setting [5]). Moreover, in series [2] (inhibitor 78.125 nM), the remaining activity at 0.078125 µM was found to be 100%. Besides, the remaining activity at 0.15625 µM in series [2] (inhibitor 156.25 nM) amounted to 91.6%. Further, the remaining activity at 0.3125 µM in series [2] (inhibitor 312.5 nM) was found to be 86%. In addition, in series [2] (inhibitor 625 nM), the remaining activity at 0.625 µM amounted to 77.9%. For the same molecule, the remaining activity at 1.25 µM in series [2] (inhibitor 1250 nM) was found to be 64%. In series [2] (inhibitor 2500 nM), the remaining activity at […] is 47.5%. For the same molecule, the remaining activity at 5 µM in series [2] (inhibitor 5000 nM) turned out to be 34.6%; in series [3] (inhibitor 5000 nM, read-out: Residual activity of FVIIa), 108%. Also, the remaining activity at 10 µM in series [2] (inhibitor 10000 nM) came out at 21%; in series [3] (inhibitor 10000 nM, read-out: Residual activity of FVIIa), 107%. The remaining activity at 20 µM in series [2] (inhibitor 20000 nM) amounted to 12.9%; in series [3] (inhibitor 20000 nM, read-out: Residual activity of FVIIa), 101%. The remaining activity at 40 µM turned out to be 9.2% in series [2] (inhibitor 40000 nM (40 µM)) and 97.1% in series [3] (inhibitor 40000 nM (40 µM), read-out: Residual activity of FVIIa). Besides, the “Residual activity of FVIIa” value is 109.299% in series [3] (inhibitor 5000 nM, 5 µM); 109.026% in series [3] (inhibitor 10000 nM, 10 µM); 101.426% in series [3] (inhibitor 20000 nM, 20 µM); 102.615% and 96.13% in series [3] (setting [5]). In addition, the “signs of toxicity or other adverse effects” value in series [4] is on record as “did not observe any signs of toxicity or other adverse effects”.
